The target of series [1] is T1, Aβ plaques (Homo sapiens, UniProt P05067). Briefly: Ex vivo curcumin staining of brain cryosections and retinas of AD-Tg mice. The format is binding, mouse.
Method: Brain cryosections (30 μm thick), retina cross sections (cryosections) (7 μm thick) and whole mount retinas were treated with a permeabilization/blocking solution containing 20% horse serum (Invitrogen) and 0.01-0.1% Triton X-100 (Sigma-Aldrich, St. Louis, Mo.). Sections were stained overnight at 4° C. with a specified combination of the following primary Abs in PBS containing 10% blocking solution: mouse anti-Aβ [human amino-acid residues 1-17; clone 6E10 (1:100; Milipore, Temecula, Calif.)]. […]
Micrographs of stained tissues were obtained on an Axio Imager Z1 ApoTome-equipped microscope (with motorized Z-drive) with AxioCam MRm monochrome camera ver. […] Quantitative analysis of Aβ plaque number and area (mm^2) was performed from two wholemounted retinas per mouse (n=4 mice per group). […] Quantitative analysis of Aβ plaque number and area (mm^2) in the brain was determined from three coronal sections (two hemispheres each) per mouse with 450 μm intervals, over an area covering hippocampal and cortical regions. […] Total area and quantitative levels of immunoreactivity were determined using a standardized custom histogram-based threshold technique, and then subjected to particle analysis.
Series [2] concerns the target T1, Aβ plaques. In words: Ex vivo curcumin staining of postmortem human whole-mount retinas. The format is binding. An excerpt: We also analyzed the human retinas with antibodies directed against human Aβ.
Autopsy eyes from Alzheimer's patients were procured from the Alzheimer's Disease Research Center, Department of Pathology, University of Southern California (Los Angeles, Calif.), under IRB protocols 99491 and 3201. Healthy donor eyes were purchased from National Disease Research Interchange (NDRI, Philadelphia, Pa.). NDRI has a human tissue collection protocol approved by a managerial committee and subject to National Institutes of Health oversight. Diseased and normal eyes were fixed and stored in 10% neutral buffered formalin. In addition, we used two healthy eyes that were frozen without fixation and stored at −80° C. Whole-mount retinas were prepared from the eyes and further studied by immunohistochemisty.
The samples were covered with GVA mounting media (Zymed).

Series [3] addresses T1, Aβ plaques. Briefly: In vivo labeling of Aβ plaques after systemic curcumin administration, tissues examined afterwards. Details: species or system mouse.
Method: Mice were anesthetized and perfused with 4% ice-cold buffered PFA, and a group of mice were not perfused. Their eyes were enucleated and fixed immediately in 4% fresh PFA overnight. For whole mount retinas, the eyes were dissected and the anterior part was removed. The eyecups were soaked for 10 minutes in hyaluronidase (type I-S) (0.07 mg/ml) (Sigma) to liquefy and remove the vitreous residues, than washed for 10 minutes×3 in PBS, and the whole mount retinas were collected. For whole eye sectioning, the eyes were put in 30% sucrose in 4% PFA for 2 hours, than washed for 15 minutes×3 in PBS. The eyes were embedded in O.C.T and frozen slowly on dry ice than sagittal sectioned (7 μm) with cryostat. Brains were collected and fixed immediately in 4% fresh PFA overnight. The brains were put in 30% sucrose (in 4% PFA) gradient. Brains were washed for 15 minutes×3 in PBS, next embedded in O.C.T and frozen slowly on dry ice, then coronal sectioned (30 μm) with cryostat. […] Subsequently, brains and eyes were cryosectioned, or prepared for whole mount retina.
Series [4] has as its target T1, Aβ plaques. Briefly: In vivo imaging of the retina in live mice after curcumin injection. Details: species or system mouse. The note with it: single injection 7.5 mg/kg, two hours prior to imaging, excitation 546/15 nm, AD-Tg mice.
Method: To investigate the feasibility of our approach for noninvasive plaque detection, we conducted an in vivo imaging of the retina in live mice using a modified stereomicroscope (Leica S6E) with a wavelength-controlled light source and a digital camera.
Mice were anaesthetized with Ketamine 100 mg/ml/kg and Xylazine 20 mg/ml/kg. Mouse pupils were dilated to about 2 mm in diameter with 0.5% phenylephrine hydrochloride ophthalmic solution (Bausch & Lomb) combined with 0.5% tropicamide ophthalmic solution (Mydral; Bausch & Lomb). During the imaging process, the mice were positioned on a stage of the stereomicroscope, and the eye was covered with a drop of PBS supplemented with calcium and magnesium, which served as an optical coupling medium between the eye surface and the imaging lens. A modified stereomicroscope (Leica S6E) that was adjusted to visualize fluorescence and scatter signals at higher resolution was used to capture images (exposure time 750 ms. with gain 4). The modified stereomicroscope was assembled to include a Polychrome V (Till Photonics) variable wavelength light source, a MicroFire color digital camera (Optronics), and an additional 6× (double convex) magnifying lens, with a focal length of 10 cm. Images were repeatedly captured at several different angles, in order to visualize a larger field and to eliminate non-specific reflection signals.

Results on 1 compound are retold here after patent US10512699B2 (Cedars-Sinai Medical Center, priority 2008, dated 2019).

T1 sequence (P05067 672-713 limits assumed): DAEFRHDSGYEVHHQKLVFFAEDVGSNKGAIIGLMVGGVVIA

`COc1cc(/C=C/C(=O)CC(=O)/C=C/c2ccc(O)c(OC)c2)ccc1O` [curcumin, diferuloylmethane]: the “Curcumin staining of plaques detected by anti-human Aβ antibodies” value in series [1] (hippocampus of AD-Tg mice, brain cryosections, ex vivo) is reported as “had an affinity to the same plaques that were detected by antibodies specific to human Aβ”. For the same compound, in series [1] (retinas of AD-Tg mice, whole mount and cross-section, not in non-Tg (wt) mice), the “Curcumin labeling of retinal Aβ plaques” value is “presence of Aβ plaques labeled by both curcumin and anti-human AP-antibodies”. For the same compound, the “Co-localization of curcumin with anti-human Aβ immunolabeling” value in series [2] (human AD retinas, curcumin after immunolabeling) is given as “confirmed their co-localization”. Also, in series [2] (postmortem AD patient eyes (n=9), after Sudan Black B, none in non-AD eyes), the “Plaques detected by curcumin in human retinas” value is “found in all AD patient eyes examined”. Besides, in series [3] (i.v., single or multiple injections, retinas and brains), the “Detection of labeled plaques following administered curcumin” value was “could be detected in the retinas and brains of AD-Tg mice, but not in the non-Tg (wt) controls”. In series [3] (mice, intravenous injection), the “Affinity for Aβ plaques in vivo” value is “high affinity for Aβ plaques in vivo”, the Blood-brain barrier crossing result was “crosses the blood-brain barrier” and the Blood-retina barrier crossing result is “also crosses the blood-retina barrier”. Also, the “Detection of retinal Aβ plaques” value in series [3] (systemically at a single dose of 7.5 mg/kg or given orally) is reported as “effective in detecting retinal Aβ plaques”. In addition, the “Visibility of curcumin-labeled plaques in live mouse retina” value in series [4] is “curcumin-labeled plaques were visible”.
